Data published in patent US11896032B2, “Agent for improving feed conversion rate, agent for improving survival rate, agent for improving the number of eggs laid by egg-laying hen, and method of giving same to animals, and feed” (Tsubakisangyo Co., Ltd., priority 2016, dated 2024).
Where “and” joins values, the source holds several entries; their conditions need not be identical. Equal values may be shown once.

How the values were obtained:
egg-laying hens [1] = assay: Second test: feed with powdery acetylcysteine added given to egg-laying hens; type: in vivo, chicken (Julia Light); settings: for egg production rate: 28 days, 42- to 46-week old hens
Description: The second test was performed by giving a feed, to which powdery acetylcysteine was added, to egg-laying hens.
120 individuals having an egg production rate of 82% or more 4 weeks before the start of the preparative raising were selected from Julia Light birds (281-day old when partitioned) which were being raised in the scientific feed research center of Japan Scientific Feeds Association to be fed.
Three zones were set: a control zone where a basic feed not having acetylcysteine added thereto was given, a first test zone (standard zone) where a feed comprising a basic feed to which 0.0014% acetylcysteine was added was given, and a second test zone (5-fold zone) where a feed comprising a basic feed to which 0.0072% acetylcysteine was added was given.
Four groups were assigned to each zone, and the basic feed was given for 14 days to accustom the tested hens to the test environment. After that, the feed corresponding to each zone was given for 4 weeks.
Also in the second test, a standard daily intake of acetylcysteine per bird is planned to be 1 mg per weight (Kg) of a tested hen. In the main test, from the weight at the start of preparative raising and the feed intake one week after the start of preparative raising, assuming that the weight of a tested hen was 1580 g and a daily feed intake per bird was 140 g, the amount of acetylcysteine to be added to the basic feed was set from the following expression: standard zone: amount (%) of acetylcysteine to be added to the basic feed=weight (1580 g)×acetylcysteine intake (1 mg/weight (Kg))/feed intake (114 g/day/bird)×100 5-fold zone: amount (%) of acetylcysteine to be added to the basic feed=weight (1580 g)×acetylcysteine intake (5 mg/weight (Kg))/feed intake (114 g/day/bird)×100 <Management of Raising>
The tested hens were individually managed in a terraced individual cage for egg-laying hens disposed in an open chicken house. A set of 10 continuous cages was used for each group, and a single empty cage was disposed between the zones. The feed and drinking water were continuously given. The light beams were controlled such that the bright period was 14 hours and the dark period was 10 hours.
A variation in weight, the average egg weight, the daily egg production amount, the feed intake, and the feed efficiency were subjected to analysis of variance by a method of one-way analysis of variance using the given feed as a factor, and the superiority in each interval was examined. The egg production rate was subjected to arcsine transformation, and the superiority of the difference between intervals was similarly examined. The culling hens were excluded from the average back to the start of the test, and the results of egg production and the like were summarized. The egg production rate during the test period was subjected to rejection test, and the individuals whose egg production rate was determined as abnormal were also excluded from the average back to the start of the test.
The scientific feed research center of Japan Scientific Feeds Association (821 Yoshikura, Naritashi, Chiba)
The test was performed for 42 days from September 21 to November 2, Heisei 28. The 14 days from September 21 to October 5, Heisei 28 was the preparative test period, and the 28 days from October 6 to November 2, Heisei 28 was the main test period.

egg-laying hens [2] = assay: First test: aqueous solution of acetylcysteine given to egg-laying hens as drinking water; type: in vivo, chicken (Julia Light in test zone, Julia in control zone)
Description: The first test was performed by giving an aqueous solution of acetylcysteine to egg-laying hens as drinking water.
Adult egg-laying hens were selected as the target animal for the test because data is readily collected. The point of time when the test was started was at off-peak times in egg laying.
Two breeds Julia and Julia Light were used.
For this reason, in the main test, Julia having a low feed conversion rate (high profitability) was raised in the control zone and Julia Light having a high feed conversion rate (low profitability) was raised in the test zone.
The number of hens in the test zone was 33412 Julia Light hens and that in the control zone was also 33412 Julia hens.
The test zone and the control zone were placed in Akagiyama Farm run by Takai Poultry Farm Y.K., where chickens are actually raised, to perform the test in an actual situation.
A windowless house was used because differences between individuals and differences in heath conditions are small.
The house was provided with a cage having a width of 380 mm, a length of 500 mm, and a height of 380 mm.
To avoid application of heat stress to the target chickens for the test, the test was performed for 166 days from October 21, Heisei 27 to April 3, Heisei 28. At a temperature inside the house of more than 27° C., the feed demand (feed intake) of the chickens will reduce due to heat stress.
A Kumiai Blend Feed “Akagikougen 17 Up for adult chicken” shown in FIG. 1 was given from October 21, Heisei 27 to February 13, Heisei 28, and a Kumiai Blend Feed “Akagikougen 16 Up for adult chicken” shown in FIG. 2 was given from February 23 to April 3, Heisei 28.
As the agent for improving a feed conversion rate, the agent for improving a survival rate, or the agent for improving the number of eggs laid by an egg-laying hen, an aqueous solution of acetylcysteine was given to Julia Light in the test zone as drinking water through the nipples disposed at both ends of the ceiling of the cage.
The concentration of acetylcysteine in drinking water was prepared such that 1 mg/day/Kg acetylcysteine was given to the egg-laying hens. Specifically, 3.3 L per day of a stock solution having an acetylcysteine concentration of 10% was used for 33412 Julia Light hens having a weight of about 2 Kg.
The frequency to give the agent for improving a feed conversion rate, the agent for improving a survival rate, or the agent for improving the number of eggs laid by an egg-laying hen was one time for 5 days.
Water not containing agent for improving a feed conversion rate, the agent for improving a survival rate, or the agent for improving the number of eggs laid by an egg-laying hen was given to Julia in the control zone through the nipple.
The lower columns in FIG. 3 show the difference in the number of deaths, the difference in the number of eggs laid, the average feed demand, the average egg production rate, and the average egg weight between the target chickens for the test and the control during the test period.
A smaller number of deaths and cullings of the target chickens for the test are preferred. A larger number of eggs laid are preferred. A smaller feed demand (feed intake) is preferred although it should be balanced with the egg production rate and the egg weight. A larger egg production rate is preferred. A larger egg weight and a larger average egg weight are preferred. The feed conversion rate of the target egg-laying hen for the test is calculated as a ratio of the total weight of eggs laid to the feed demand as described above. The feed demand is calculated as a product of the feed intake, the number of birds, and the survival rate. The total weight of eggs laid is calculated as a product of the number of birds, the egg production rate, and the average egg weight.
The feed conversion rate of the target egg-laying hen for the test is represented by a ratio of the amount of feed given to the total weight of eggs laid as described above. […]

[3] = test system: chickens for meat (broilers); assay: Third test: feed with powdery acetylcysteine added given to chickens for meat (broilers); type: in vivo, chicken (Chunky broiler)
Description: A third test was performed by giving chickens for meat (broilers) a feed having powdery acetylcysteine added thereto.
300 (150 males and 150 females) broiler-dedicated breed day-old chicks (broilers available from Nippon Chunky Co., Ltd.) are fed. As the chicks, about 350 birds (175 males and 175 females) were introduced, and individuals not having any abnormal health condition and having a close weight were selected and used in the test.
The nutritional value of this basic feed is adjusted so as to be lower than the index.
The concentration of acetylcysteine added to the basic feed was determined based on the aimed results for Chunky broiler (2014).
Three groups were assigned to the control zone and the test zone, respectively, and the chicks were raised until 49-day old.
Each flock of tested chicks was raised in an electrically heated windowless chicken house of a forced ventilation (air exhaust) type.
For vaccination, chicks vaccinated with Marek's vaccine and live fowl pox vaccine when born were introduced, and were additionally vaccinated with NB live vaccine at 4-day old and 15-day old and with live fowl pox vaccine at 21-day old.
The feed and drinking water were continuously given.

chickens for meat = settings: 1% glycine in feed; cited from earlier work
[4] = 1 mg/day/Kg in drinking water, 166 days

## CC(=O)N[C@@H](CS)C(=O)O [acetylcysteine, N-acetyl-L-cysteine]
egg-laying hens [1]; 5-fold zone, 0.0072% acetylcysteine in feed, 4 weeks
  weight at the end of the test relative to control zone: approximately equal
egg-laying hens [1]; 5-fold zone, 0.0072% in feed
  egg production rate: 98.6%
egg-laying hens [1]; feed contained 0.2% DL-methionine, zone not specified
  feed conversion rate, higher than that in the control zone: 4.43%
egg-laying hens [1]; standard zone, 0.0014% acetylcysteine in feed, 4 weeks
  weight at the end of the test, larger than that in the control zone: 0.5%
egg-laying hens [1]; standard zone, 0.0014% in feed
  egg production rate: 99.2%
egg-laying hens [2]; [4]
  decrease of average egg weight in test zone compared to control zone: 2.16%
  increase of average egg production rate in test zone compared to control zone: 1.13%
  increase of number of eggs laid in test zone compared to control zone: 1.67%
  proportion of the feed conversion rate in the test zone to that in the control zone: 96.50% and 96.48%
  reduction (improvement) of feed conversion rate in test zone compared to control zone: 3.52%
  reduction of number of deaths and cullings in test zone compared to control zone: 20%
egg-laying hens [2]; 1 mg/day/Kg in drinking water, given one time for 5 days, 166 days, control zone 1.99
  feed conversion rate in the test zone: 1.92
egg-laying hens [2]; as shown in FIG. 3, test zone vs control zone
  reduction of feed demand: 4.67%
egg-laying hens [2]; corrected for 1.59% increase in 20-day preparative test without agent
  improvement of feed conversion rate in test zone vs control zone in consideration of the preparative test: 5.11%
egg-laying hens [2]; eggs collected in the test zone
  surface roughness of egg shells, visual observation, vs eggs of control zone: finer and smoother surfaces
egg-laying hens [2]; old hens, chicken farm
  improvement in feed conversion rate in the test of the old hens in the chicken farm: more than 5%
egg-laying hens [2]; test zone, calcium was found in the control zone
  calcium in solid products of feces washed with water: no calcium was found
[3]; 1 mg/Kg daily in feed, until 49-day old
  feed conversion rate in the test zone relative to that in the control zone: 100.55%
[3]; Weeks 4 to 7 of the second period
  feed efficiency in the test zone relative to that in the control zone: 101.54%
[3]; test zone, control zone 3 birds, Week 6 (sudden death syndrome)
  number of deaths and cullings: 1 bird
[3]; test zone, control zone 98%
  growth rate: 99.3%
[3]; three weeks of the first period
  feed efficiency in the test zone relative to that in the control zone: 99.32%
[3]; whole period, until 49-day old
  feed efficiency in the test zone relative to that in the control zone: 100.93%

## NCC(=O)O [glycine]
Chickens for meat
  weights of chickens of 7-day old vs without giving glycine: smaller
